pEC50: −log10 of the molar value. Converted amounts (≈) assume the structure as drawn.
Key:
[1] = tested on: 3T3-L1; assay: Anti-adipogenic activity in mouse 3T3-L1 cells assessed as lipid-lowering activity measured after 9 days by Oil Red O staining based microplate reader analysis; type: functional, cell-based; details: 3T3-L1, 216 h
[2] = Therapeutic index, ratio of IC50 for cytotoxicity against mouse 3T3-L1 cells to EC50 for anti-adipogenic in mouse 3T3-L1 cells; type: toxicity, cell-based; details: read-out: Ratio IC50/EC50
[3] = tested on: 3T3-L1; assay: Anti-adipogenic activity in mouse 3T3-L1 cells assessed as lipid-lowering activity at 1 uM measured after 9 days by Oil Red O staining based microplate reader analysis relative to control; type: functional; details: time 9 day
[4] = Cytotoxicity against mouse 3T3-L1 cells assessed as reduction in cell viability incubated for 24 hrs by Sulforhodamine B assay; type: toxicity, cell-based
[5] = Tmax in Sprague-Dawley rat at 5 mg/kg, po administered for 24 hrs by LC-MS/MS analysis; type: ADME, organism-based; details: in vivo
[6] = AUC (0 to infinity) in Sprague-Dawley rat at 2 mg/kg, iv administered for 24 hrs by LC-MS/MS analysis; type: ADME, organism-based; details: in vivo
[7] = MRT (0 to t) in Sprague-Dawley rat at 5 mg/kg, po administered for 24 hrs by LC-MS/MS analysis; type: ADME, organism-based; details: in vivo
[8] = MRT (0 to t) in Sprague-Dawley rat at 2 mg/kg, iv administered for 24 hrs by LC-MS/MS analysis; type: ADME, organism-based; details: in vivo
[9] = Apparent volume of distribution during terminal phase in Sprague-Dawley rat at 5 mg/kg, po administered for 24 hrs by LC-MS/MS analysis; type: ADME, organism-based; details: in vivo, read-out: Vz/F
[10] = AUC (0 to infinity) in Sprague-Dawley rat at 5 mg/kg, po administered for 24 hrs by LC-MS/MS analysis; type: ADME, organism-based; details: in vivo
[11] = Oral bioavailability (0 to infinity) in Sprague-Dawley rat at 5 mg/kg administered for 24 hrs by LC-MS/MS analysis; type: ADME, organism-based; details: in vivo
[12] = Oral bioavailability (0 to t) in Sprague-Dawley rat at 5 mg/kg administered for 24 hrs by LC-MS/MS analysis; type: ADME, organism-based; details: in vivo
[13] = AUC (0 to t) in Sprague-Dawley rat at 2 mg/kg, iv administered for 24 hrs by LC-MS/MS analysis; type: ADME, organism-based; details: in vivo
[14] = Apparent oral clearance in Sprague-Dawley rat at 5 mg/kg, po administered for 24 hrs by LC-MS/MS analysis; type: ADME, organism-based; details: in vivo
[15] = Apparent volume of distribution during terminal phase in Sprague-Dawley rat at 2 mg/kg, iv administered for 24 hrs by LC-MS/MS analysis; type: ADME, organism-based; details: in vivo
[16] = Cmax in Sprague-Dawley rat at 5 mg/kg, po administered for 24 hrs by LC-MS/MS analysis; type: ADME, organism-based; details: in vivo
[17] = AUC (0 to t) in Sprague-Dawley rat at 5 mg/kg, po administered for 24 hrs by LC-MS/MS analysis; type: ADME, organism-based; details: in vivo
[18] = Half life in Sprague-Dawley rat at 5 mg/kg, po administered for 24 hrs by LC-MS/MS analysis; type: ADME, organism-based; details: in vivo
[19] = Half life in Sprague-Dawley rat at 2 mg/kg, iv administered for 24 hrs by LC-MS/MS analysis; type: ADME, organism-based; details: in vivo
[20] = Aqueous solubility of compound incubated for 24 hrs by HPLC analysis; type: physicochemical; details: aqueous medium

With CC(=O)c1c(-c2nccc(NCCN(C)C)n2)[nH]c2ccccc12 the pEC50 [1] was 6.60, the selectivity ratio [2] was 112 and the Activity [3] was 103.9%. The IC50 at 24 h [4] was 28400 nM.
Compound CC(=O)c1c(-c2nc(NCCCN(C)C)cc(-c3ccccc3)n2)[nH]c2ccccc12 has an Activity [3] of 26.9%.
For CC(=O)c1c(-c2nc(NCCCN(C)C)cc(-c3cccnc3)n2)[nH]c2ccccc12, the Activity [3] was 48.2%.
COc1cnc(-c2[nH]c3ccccc3c2C(C)=O)nc1NCCCN(C)C gave an Activity [3] of 54.4%.
With CC(=O)c1c(-c2ncc(F)c(NCCCN(C)C)n2)[nH]c2ccccc12 the Activity [3] was 58%.
COc1cnc(-c2[nH]c3ccccc3c2C(C)=O)nc1NCCCN1CCCC1 gave an Activity [3] of 49.7%.
Compound CC(=O)c1c(-c2ncc(C)c(NCCCN(C)C)n2)[nH]c2ccccc12 has a pEC50 [1] of 6.90, a selectivity ratio [2] of 254 and an Activity [3] of 101.8%. For the same compound, the IC50 at 24 h [4] was 32200 nM.
With CC(=O)c1c(-c2ncc(C)c(NCCN3CCCC3)n2)[nH]c2ccccc12 the pEC50 [1] was 6.95, the selectivity ratio [2] was 212 and the Activity [3] was 99.8%. The IC50 at 24 h [4] was 23400 nM.
In the case of CC(=O)c1c(-c2ncc(F)c(NCCN3CCCC3)n2)[nH]c2ccccc12, the pEC50 [1] was 6.74, the selectivity ratio [2] was 208 and the Activity [3] was 102.6%. The IC50 at 24 h [4] was 37400 nM.
In the case of CCc1cc(NCCN2CCCC2)nc(-c2[nH]c3ccccc3c2C(C)=O)n1, the Activity [3] was 58.5%.
CC(=O)c1c(-c2nc(NCCN(C)C)c3cccnc3n2)[nH]c2ccccc12 showed an Activity [3] of 22.4%.
Compound CC1=C(O)C(=O)C=C2C1=CC=C1[C@@]2(C)CC[C@@]2(C)[C@@H]3C[C@](C)(C(=O)O)CC[C@]3(C)CC[C@]12C [CELASTROL] has a pEC50 [1] of 7.00, a selectivity ratio [2] of 7 and an IC50 at 24 h [4] of 730 nM.
Work on CC(=O)c1c(-c2nc3c(c(NCCCN(C)C)n2)CCCC3)[nH]c2ccccc12 yielded an Activity [3] of 28%.
With CC(=O)c1c(-c2nc(NCCN3CCCC3)cc(C(F)(F)F)n2)[nH]c2ccccc12 the Activity [3] was 54.4%.
CC(=O)c1c(-c2nc(NCCN3CCCC3)cc(-c3ccccc3)n2)[nH]c2ccccc12 gave an Activity [3] of 5.9%.
Compound CC(=O)c1c(-c2nc3c(c(NCCN(C)C)n2)CNCC3)[nH]c2ccccc12 has an Activity [3] of 25.1%.
Work on CC(=O)c1c(-c2nc(NCCN3CCCC3)c3ccccc3n2)[nH]c2ccccc12 yielded a Tmax [5] of 1.2 h, a pEC50 [1] of 7.35 and an AUC(0-inf) [6] of 749 ng·h/mL. For the same compound, the MRT last at 24 h [7] was 9.1 h, the MRT last at 24 h [8] was 14 h and the Vd/F [9] was 77.8 L/kg. The AUC(0-inf) [10] was 616 ng·h/mL, the bioavailability [11] was 32.9% and the bioavailability [12] was 38.1%. The selectivity ratio [2] was 190, the Activity [3] was 99.5% and the AUC(0-t) at 24 h [13] was 603 ng·h/mL. It also gave a CL/F [14] of 137 mL/min/kg, a Vz/F [15] of 47.8 L/kg and a Cmax [16] of 63.7 ng/mL. It also gave an AUC(0-t) at 24 h [17] of 574 ng·h/mL, a half-life [18] of 6.5 h and a half-life [19] of 12.4 h. The solubility at 24 h [20] was 8 µg/mL (≈ 20 µM) and the IC50 at 24 h [4] was 8490 nM.
With CC(=O)c1c(-c2nc3c(c(NCCN4CCCC4)n2)CCCC3)[nH]c2ccccc12 the Activity [3] was 20.5%.
Work on CC(=O)c1c(-c2nc(NCCCN(C)C)c3ncn(C)c3n2)[nH]c2ccccc12 yielded a pEC50 [1] of 6.51, a selectivity ratio [2] of 187 and an Activity [3] of 99.9%. The IC50 at 24 h [4] was 57700 nM.
With CC(=O)c1c(-c2nc(NCCCN(C)C)cc(C(F)(F)F)n2)[nH]c2ccccc12 the Activity [3] was 15.5%.
Work on CC(=O)c1c(-c2nc(O)cc(NCCCN(C)C)n2)[nH]c2ccccc12 yielded an Activity [3] of -3.1%.
Compound CC(=O)c1c(-c2nc(NCCN(C)C)c3ccccc3n2)[nH]c2ccccc12 has a pEC50 [1] of 7.11, a selectivity ratio [2] of 81 and an Activity [3] of 100.5%. For the same compound, the IC50 at 24 h [4] was 6310 nM.
CC(=O)c1c(-c2nc(NCCN3CCCC3)c3cccnc3n2)[nH]c2ccccc12 showed an Activity [3] of 16.8%.
Compound CCc1cc(NCCCN(C)C)nc(-c2[nH]c3ccccc3c2C(C)=O)n1 has an Activity [3] of 73.8%.
In the case of COc1cnc(-c2[nH]c3ccccc3c2C(C)=O)nc1NCCN1CCCC1, the Activity [3] was 48.3%.
Work on CC(=O)c1c(-c2nccc(NCCCN(C)C)n2)[nH]c2ccccc12 yielded an Activity [3] of 79.5%.
Compound CC(=O)c1c(-c2nc3c(c(NCCN(C)C)n2)COC3)[nH]c2ccccc12 has an Activity [3] of 46.9%.
CC(=O)c1c(-c2nc(C)cc(NCCN3CCCC3)n2)[nH]c2ccccc12 showed a pEC50 [1] of 7.05, a selectivity ratio [2] of 202 and an Activity [3] of 98.3%. For the same compound, the IC50 at 24 h [4] was 18000 nM.
With CC(=O)c1c(-c2nc(C)cc(NCCCN(C)C)n2)[nH]c2ccccc12 the pEC50 [1] was 6.65, the selectivity ratio [2] was 151 and the Activity [3] was 99.8%. The IC50 at 24 h [4] was 33900 nM.
For CC(=O)c1c(-c2nc(NCCCN(C)C)cc(-c3ccc(C(C)(C)C)cc3)n2)[nH]c2ccccc12, the Activity [3] was 20.5%.
Compound CC(=O)c1c(-c2nc(NCCN3CCCC3)c3ncn(C)c3n2)[nH]c2ccccc12 has a pEC50 [1] of 6.53, a selectivity ratio [2] of 222 and an Activity [3] of 99.5%. The IC50 at 24 h [4] was 65500 nM.
CC(=O)c1c(-c2nc(C)c(C)c(NCCCN(C)C)n2)[nH]c2ccccc12 gave a pEC50 [1] of 6.29, a selectivity ratio [2] of 60 and an Activity [3] of 92.1%. For the same compound, the IC50 at 24 h [4] was 30400 nM.
